Measurements from paper PMC10285409, “Identification and validation of G protein-coupled receptors modulating flow-dependent signaling pathways in vascular endothelial cells” (Frontiers in Molecular Biosciences, 2023).

Molecular target: T1, LGR4 (Homo sapiens, UniProt Q9BXB1)
T1 sequence (Q9BXB1 25-951): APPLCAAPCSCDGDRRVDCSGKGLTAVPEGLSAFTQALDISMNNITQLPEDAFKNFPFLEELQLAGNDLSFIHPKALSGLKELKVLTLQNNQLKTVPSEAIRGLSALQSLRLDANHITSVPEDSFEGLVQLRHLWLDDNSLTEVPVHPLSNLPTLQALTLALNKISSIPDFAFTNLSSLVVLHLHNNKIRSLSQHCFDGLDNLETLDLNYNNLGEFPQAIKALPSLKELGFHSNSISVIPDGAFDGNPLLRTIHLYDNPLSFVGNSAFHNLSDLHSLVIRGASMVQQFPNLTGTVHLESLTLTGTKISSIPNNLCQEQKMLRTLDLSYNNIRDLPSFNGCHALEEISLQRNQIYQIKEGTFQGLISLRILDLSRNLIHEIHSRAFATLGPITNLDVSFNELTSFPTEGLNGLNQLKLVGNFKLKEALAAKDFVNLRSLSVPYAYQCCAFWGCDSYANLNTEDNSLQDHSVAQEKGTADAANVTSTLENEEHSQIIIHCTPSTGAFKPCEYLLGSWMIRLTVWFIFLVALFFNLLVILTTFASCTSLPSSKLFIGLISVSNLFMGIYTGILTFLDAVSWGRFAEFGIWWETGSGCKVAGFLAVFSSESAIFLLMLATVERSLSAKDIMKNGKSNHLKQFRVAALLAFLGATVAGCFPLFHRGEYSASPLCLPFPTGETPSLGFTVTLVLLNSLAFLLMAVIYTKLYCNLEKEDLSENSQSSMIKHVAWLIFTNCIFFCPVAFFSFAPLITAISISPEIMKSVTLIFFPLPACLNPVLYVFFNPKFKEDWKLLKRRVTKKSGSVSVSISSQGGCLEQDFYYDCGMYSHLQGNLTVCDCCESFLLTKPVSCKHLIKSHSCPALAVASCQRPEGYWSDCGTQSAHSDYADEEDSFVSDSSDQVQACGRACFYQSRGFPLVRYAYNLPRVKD
Assay: beta-arrestin recruitment enzyme complementation in CHO-K1 LGR4 cells; KLF2-luciferase activity lost on LGR4 knockdown
Type: cell-based

| EC50 [µM] | SMILES |
| --- | --- |
| 27 | CCCCN(Cc1ccc(-c2ccccc2-c2nnn[nH]2)cc1)C(=O)NCc1ccc(Cl)cc1 [Compound 1] |
| 5 | CCCCOC(=O)c1c(Cl)nc(CCCC)n1Cc1cccc2c1ccn2-c1ccccc1-c1nn[nH]n1 [Compound 2] |
